Source: publication PMC9833666, “Designing and identifying β-hairpin peptide macrocycles with antibiotic potential” (Science Advances, 2023)
Where two headings read alike, the source gives them in different places. Bridge positions count the residues as written; N and C are the ends. Peptide text beside a SMILES is read from it.

What was measured:
[1] = system: Acinetobacter baumannii AB5075; conditions: for AB5075 MIC FBS: 100% fetal bovine serum; for AB5075 MIC MH: Mueller-Hinton
Procedure: MICs were performed by a modifiedClinical and Laboratory Standards Institute) procedure. […] Separately, E. coli W3110 or A. baumannii AB5075 was grown overnight in 5 ml of standard MH at 37°C. Cells from these cultures were diluted to a concentration of 5 × 10^5 to 6 × 10^5 cells/ml in either standard MH, MHII, RPMI, or fetal bovine serum, and 90 μl was added to each well of the 96-well plate containing diluted peptide. Plates were wrapped twice in parafilm and incubated at 37°C for 18 to 24 hours. Wells were examined by eye against wells with no bacteria for signs of growth. MICs were reported as the minimum concentration with no observable growth. In cases where triplicate samples differed, the concentration supported by the median of the three replicates was reported. […]
For consistency, all SynCH peptides were resuspended at 10 mg/ml in water. Peptides were then visually inspected for any lack of solubility (Data File S1). […]
We had this library commercially synthesized and tested its ability to inhibit the growth of Acinetobacter baumannii AB5075, a clinically isolated Carbapenem Resistant Acinetobacter (CRA) pathogen. MICs were performed in MH as well as 100% FBS, which is likely more representative of the in vivo environment. […]

[2] = system: Single-donor human red blood cells; test: Hemolysis assay; format: cell-based; conditions: hemolysis at 128 µg/ml, fold change relative to SySA-5
Procedure: Single-donor human red blood cells (Innovative Research, no. IWB3ALS) were washed in PBS and adjusted to a concentration of 1 × 10^9 cells/ml. Each peptide was added individually to 200 μl of cells at a concentration of either 300 μg/ml (SySA library) or 128 μg/ml (SySA-5 optimization library) in a 96-well polypropylene plate (Corning, 3879). PBS alone and 1% Triton X-100 were used for background normalization and 100% hemolysis, respectively. Each reaction was set up in triplicate. Plates were incubated for 3 hours at 37°C. Following incubation, samples were centrifuged at 800g for 20 min, and 100 μl of supernatant was transferred to a flat-bottom 96-well plate (Genesse, 25-104). Percent hemolysis for each sample was determined by normalizing the absorbance at 540 nm for each sample to the average background and dividing by the average absorbance for 1% Triton X-100 (100% hemolysis). Error bars represent 1 SD of triplicate samples.

Row | Compound | AB5075 MIC FBS ([1]; replicate 1) | AB5075 MIC FBS ([1]; replicate 2) | AB5075 MIC FBS ([1]; replicate 3) | AB5075 MIC MH ([1]; replicate 1) | AB5075 MIC MH ([1]; replicate 2) | AB5075 MIC MH ([1]; replicate 3) | Fold Change Hemolysis [2] | AB5075 MIC FBS ([1]; median of triplicate) | AB5075 MIC MH ([1]; median of triplicate)
1 | CC(C)C[C@@H]1NC(=O)[C@H](CCCNC(=N)N)NC(=O)[C@H](C(C)C)NC(=O)[C@@H]2CSSC[C@H](NC(=O)[C@H](CC(C)C)NC(=O)[C@H](CCCNC(=N)N)NC(=O)[C@H](C(C)C)NC(=O)[C@H](CCCNC(=N)N)NC(=O)[C@H](CC(C)C)NC(=O)[C@@H](N)CSSC[C@@H](C(=O)O)NC(=O)[C@H](C(C)C)NC(=O)[C@H](CCCNC(=N)N)NC1=O)C(=O)N[C@@H](CCCNC(=N)N)C(=O)N[C@@H](CCCNC(=N)N)C(=O)N[C@@H](CCCNC(=N)N)C(=O)N[C@@H](CCCNC(=N)N)C(=O)N2 [SySA-5.14] (H-CLRVRLCRRRRCVRLRVC-OH; disulfide 1-18, 7-12 (inferred); N-terminus and C-terminus assumed) | 64 µg/mL | 64 µg/mL | 64 µg/mL | 8 µg/mL | 4 µg/mL | 4 µg/mL | 5.6 |  | 
2 | CC(C)C[C@@H]1NC(=O)[C@H](CO)NC(=O)[C@H](C(C)C)NC(=O)[C@@H]2CSSC[C@H](NC(=O)[C@H](CC(C)C)NC(=O)[C@H](CCCNC(=N)N)NC(=O)[C@H](C(C)C)NC(=O)[C@H](CCCNC(=N)N)NC(=O)[C@H](CC(C)C)NC(=O)[C@@H](N)CSSC[C@@H](C(=O)O)NC(=O)[C@H](C(C)C)NC(=O)[C@H](CCCNC(=N)N)NC1=O)C(=O)N[C@@H](CCCNC(=N)N)C(=O)N[C@@H](CCCNC(=N)N)C(=O)N[C@@H](CCCNC(=N)N)C(=O)N2 [SySA-5.21] (H-CLRVRLCRRRCVSLRVC-OH; disulfide 1-17, 7-11 (inferred); N-terminus and C-terminus assumed) | 128 µg/mL | >128 µg/mL | >128 µg/mL | 16 µg/mL | 16 µg/mL | 32 µg/mL | 2.4 |  | 
3 | CC(C)C[C@@H]1NC(=O)[C@H](CCCNC(=N)N)NC(=O)[C@H](C(C)C)NC(=O)[C@@H]2CSSC[C@H](NC(=O)[C@H](CC(C)C)NC(=O)[C@H](CCCNC(=N)N)NC(=O)[C@H](C(C)C)NC(=O)[C@H](CCCNC(=N)N)NC(=O)[C@@H](N)CSSC[C@@H](C(=O)O)NC(=O)[C@H](CCCNC(=N)N)NC1=O)C(=O)N[C@@H](CCCNC(=N)N)C(=O)N[C@@H](CCCNC(=N)N)C(=O)N[C@@H](CCCNC(=N)N)C(=O)N[C@@H](CCCNC(=N)N)C(=O)N2 [SySA-5.26] (H-CRVRLCRRRRCVRLRC-OH; disulfide 1-16, 6-11 (inferred); N-terminus and C-terminus assumed) | >128 µg/mL | >128 µg/mL | >128 µg/mL | 8 µg/mL | 8 µg/mL | 8 µg/mL | 0.8 |  | 
4 | CC(C)C[C@@H]1NC(=O)[C@H](CCCNC(=N)N)NC(=O)[C@H](C(C)C)NC(=O)[C@H](CCCCN)NC(=O)[C@H](CCCNC(=N)N)NC(=O)[C@H](CCCNC(=N)N)NC(=O)[C@H](CCCNC(=N)N)NC(=O)[C@H](CCCNC(=N)N)NC(=O)[C@H](CCCNC(=N)N)NC(=O)[C@H](CC(C)C)NC(=O)[C@H](CCCNC(=N)N)NC(=O)[C@H](C(C)C)NC(=O)[C@H](CCCNC(=N)N)NC(=O)[C@@H](N)CSSC[C@@H](C(=O)O)NC(=O)[C@H](CCCNC(=N)N)NC1=O [SySA-5.25] (H-CRVRLRRRRRKVRLRC-OH; disulfide 1-16) |  |  |  |  |  |  | 1.5 | > 128 µg/mL | 32 µg/mL
